Results from ChEMBL document CHEMBL3272271, “Folate antagonists. 13. 2,4-Diamino-6-](alpha,alpha,alpha-trifluoro-m-tolyl)thio]quinazoline and related 2,4-diamino-6-[(phenyl- and naphthyl)thio]quinazolines, a unique class of antimetabolites with extraordinary antimalarial and antibacterial effects” (J Med Chem, 1978).
Activity calls are given as the source filed them. The calls are words filed in the database; no cut-off is given here.

Legend:
Plasmodium berghei [1] = experiment: Ratio of quinine hydrochloride SD90 to compound SD90 for trophozoite-induced Plasmodium berghei infected in mouse assessed as daily dose required to suppression of 90% parasite infection administered with diet for 6 days; format: functional
Plasmodium gallinaceum [2] = experiment: Antimalarial activity against trophozoite-induced Plasmodium gallinaceum infected in white leghorn chicken assessed as increase in mean survival days of host at 40 mg/kg, sc administered 72 hrs after infection relative to control; format: functional; details: route subcutaneous
Plasmodium berghei [3] = experiment: Antimalarial activity against Plasmodium berghei infected in mouse assessed as increase in mean survival days of host at 10 mg/kg, sc administered 72 hrs after infection relative to control; format: functional; details: route subcutaneous
Plasmodium gallinaceum [4] = experiment: Antimalarial activity against sporozoite-induced Plasmodium gallinaceum infected in white leghorn chicken assessed as disease cure from parasite infection at 20 mg/kg, sc administered 72 hrs after infection; format: functional, organism-based; parameters: dose 20 mg/kg
Staphylococcus aureus [5] = experiment: Antibacterial activity against Staphylococcus aureus UC-96 by gradient plate test; format: functional
Plasmodium gallinaceum [6] = experiment: Antimalarial activity against trophozoite-induced Plasmodium gallinaceum infected in white leghorn chicken assessed as disease cure from parasite infection at 160 mg/kg, sc administered 72 hrs after infection; format: functional, organism-based; parameters: dose 160 mg/kg
Plasmodium berghei [7] = experiment: Antimalarial activity against Plasmodium berghei infected in mouse assessed as disease cure from parasite infection at 160 mg/kg, sc administered 72 hrs after infection; format: functional, organism-based; parameters: dose 160 mg/kg
Shigella sonnei = experiment: Antibacterial activity against Shigella sonnei C-10 by gradient plate test; format: functional
Plasmodium berghei [8] = experiment: Antimalarial activity against Plasmodium berghei infected in mouse assessed as disease cure from parasite infection at 320 mg/kg, sc administered 72 hrs after infection; format: functional, organism-based; parameters: dose 320 mg/kg
Gallus gallus [9] = experiment: Toxicity in sporozoite-induced Plasmodium gallinaceum infected white leghorn chicken assessed as mortality at 320 mg/kg, sc administered 72 hrs after infection measured up to 6 days; format: organism-based; parameters: dose 320 mg/kg, route subcutaneous; details: in vivo
Plasmodium gallinaceum [10] = experiment: Antimalarial activity against trophozoite-induced Plasmodium gallinaceum infected in white leghorn chicken assessed as disease cure from parasite infection at 320 mg/kg, sc administered 72 hrs after infection; format: functional, organism-based; parameters: dose 320 mg/kg
Plasmodium gallinaceum [11] = experiment: Antimalarial activity against trophozoite-induced Plasmodium gallinaceum infected in white leghorn chicken assessed as increase in mean survival days of host at 80 mg/kg, sc administered 72 hrs after infection relative to control; format: functional; details: route subcutaneous
Plasmodium gallinaceum [12] = experiment: Antimalarial activity against sporozoite-induced Plasmodium gallinaceum infected in white leghorn chicken assessed as disease cure from parasite infection at 80 mg/kg, sc administered 72 hrs after infection; format: functional, organism-based; parameters: dose 80 mg/kg
Pseudomonas aeruginosa = experiment: Antibacterial activity against Pseudomonas aeruginosa 28 by gradient plate test; format: functional
Plasmodium gallinaceum [13] = experiment: Antimalarial activity against sporozoite-induced Plasmodium gallinaceum infected in white leghorn chicken assessed as disease cure from parasite infection at 320 mg/kg, sc administered 72 hrs after infection; format: functional, organism-based; parameters: dose 320 mg/kg
Plasmodium gallinaceum [14] = experiment: Antimalarial activity against sporozoite-induced Plasmodium gallinaceum infected in white leghorn chicken assessed as disease cure from parasite infection at 10 mg/kg, sc administered 72 hrs after infection; format: functional, organism-based; parameters: dose 10 mg/kg
Plasmodium berghei [15] = experiment: Antimalarial activity against Plasmodium berghei infected in mouse assessed as increase in mean survival days of host at 5 mg/kg, sc administered 72 hrs after infection relative to control; format: functional; details: route subcutaneous
Plasmodium gallinaceum [16] = experiment: Antimalarial activity against trophozoite-induced Plasmodium gallinaceum infected in white leghorn chicken assessed as increase in mean survival days of host at 5 mg/kg, sc administered 72 hrs after infection relative to control; format: functional; details: route subcutaneous
Staphylococcus aureus [17] = experiment: Antibacterial activity against drug-resistant Staphylococcus aureus S18713 by gradient plate test; format: functional
Enterococcus faecalis = experiment: Antibacterial activity against Streptococcus faecalis MGH-2 by gradient plate test; format: functional
Plasmodium gallinaceum [18] = experiment: Antimalarial activity against trophozoite-induced Plasmodium gallinaceum infected in white leghorn chicken assessed as increase in mean survival days of host at 0.63 mg/kg, sc administered 72 hrs after infection relative to control; format: functional; details: route subcutaneous
Escherichia coli = experiment: Antibacterial activity against Escherichia coli Vogel by gradient plate test; format: functional
Gallus gallus [19] = experiment: Toxicity in sporozoite-induced Plasmodium gallinaceum infected white leghorn chicken assessed as mortality at 160 mg/kg, sc administered 72 hrs after infection measured up to 6 days; format: organism-based; parameters: dose 160 mg/kg, route subcutaneous; details: in vivo
Plasmodium gallinaceum [20] = experiment: Antimalarial activity against sporozoite-induced Plasmodium gallinaceum infected in white leghorn chicken assessed as disease cure from parasite infection at 40 mg/kg, sc administered 72 hrs after infection; format: functional, organism-based; parameters: dose 40 mg/kg
Plasmodium gallinaceum [21] = experiment: Antimalarial activity against sporozoite-induced Plasmodium gallinaceum infected in white leghorn chicken assessed as increase in mean survival days of host at 10 mg/kg, sc administered 72 hrs after infection relative to control; format: functional; details: route subcutaneous
Plasmodium gallinaceum [22] = experiment: Antimalarial activity against sporozoite-induced Plasmodium gallinaceum infected in white leghorn chicken assessed as disease cure from parasite infection at 160 mg/kg, sc administered 72 hrs after infection; format: functional, organism-based; parameters: dose 160 mg/kg
Plasmodium gallinaceum [23] = experiment: Antimalarial activity against trophozoite-induced Plasmodium gallinaceum infected in white leghorn chicken assessed as increase in mean survival days of host at 160 mg/kg, sc administered 72 hrs after infection relative to control; format: functional; details: route subcutaneous
Plasmodium gallinaceum [24] = experiment: Antimalarial activity against sporozoite-induced Plasmodium gallinaceum infected in white leghorn chicken assessed as increase in mean survival days of host at 20 mg/kg, sc administered 72 hrs after infection relative to control; format: functional; details: route subcutaneous
Plasmodium berghei [25] = experiment: Antimalarial activity against Plasmodium berghei infected in mouse assessed as disease cure from parasite infection at 40 mg/kg, sc administered 72 hrs after infection; format: functional, organism-based; parameters: dose 40 mg/kg
Plasmodium berghei [26] = experiment: Antimalarial activity against Plasmodium berghei infected in mouse assessed as increase in mean survival days of host at 20 mg/kg, sc administered 72 hrs after infection relative to control; format: functional; details: route subcutaneous
Plasmodium gallinaceum [27] = experiment: Antimalarial activity against trophozoite-induced Plasmodium gallinaceum infected in white leghorn chicken assessed as increase in mean survival days of host at 1.25 mg/kg, sc administered 72 hrs after infection relative to control; format: functional; details: route subcutaneous
Plasmodium berghei [28] = experiment: Antimalarial activity against Plasmodium berghei infected in mouse assessed as disease cure from parasite infection at 80 mg/kg, sc administered 72 hrs after infection; format: functional, organism-based; parameters: dose 80 mg/kg
Plasmodium berghei [29] = experiment: Antimalarial activity against Plasmodium berghei infected in mouse assessed as disease cure from parasite infection at 20 mg/kg, sc administered 72 hrs after infection; format: functional, organism-based; parameters: dose 20 mg/kg
Plasmodium gallinaceum [30] = experiment: Antimalarial activity against trophozoite-induced Plasmodium gallinaceum infected in white leghorn chicken assessed as increase in mean survival days of host at 20 mg/kg, sc administered 72 hrs after infection relative to control; format: functional; details: route subcutaneous
Plasmodium gallinaceum [31] = experiment: Antimalarial activity against trophozoite-induced Plasmodium gallinaceum infected in white leghorn chicken assessed as increase in mean survival days of host at 320 mg/kg, sc administered 72 hrs after infection relative to control; format: functional; details: route subcutaneous
Plasmodium gallinaceum [32] = experiment: Antimalarial activity against trophozoite-induced Plasmodium gallinaceum infected in white leghorn chicken assessed as increase in mean survival days of host at 2.5 mg/kg, sc administered 72 hrs after infection relative to control; format: functional; details: route subcutaneous
Plasmodium gallinaceum [33] = experiment: Antimalarial activity against sporozoite-induced Plasmodium gallinaceum infected in white leghorn chicken assessed as increase in mean survival days of host at 80 mg/kg, sc administered 72 hrs after infection relative to control; format: functional; details: route subcutaneous
Plasmodium gallinaceum [34] = experiment: Antimalarial activity against trophozoite-induced Plasmodium gallinaceum infected in white leghorn chicken assessed as increase in mean survival days of host at 10 mg/kg, sc administered 72 hrs after infection relative to control; format: functional; details: route subcutaneous
Plasmodium berghei [35] = experiment: Antimalarial activity against Plasmodium berghei infected in mouse assessed as increase in mean survival days of host at 1.25 mg/kg, sc administered 72 hrs after infection relative to control; format: functional; details: route subcutaneous
Plasmodium berghei [36] = experiment: Antimalarial activity against Plasmodium berghei infected in mouse assessed as increase in mean survival days of host at 2.5 mg/kg, sc administered 72 hrs after infection relative to control; format: functional; details: route subcutaneous
Plasmodium berghei [37] = experiment: Antimalarial activity against Plasmodium berghei infected in mouse assessed as disease cure from parasite infection at 640 mg/kg, sc administered 72 hrs after infection; format: functional, organism-based; parameters: dose 640 mg/kg
Plasmodium gallinaceum [38] = experiment: Antimalarial activity against sporozoite-induced Plasmodium gallinaceum infected in white leghorn chicken assessed as increase in mean survival days of host at 40 mg/kg, sc administered 72 hrs after infection relative to control; format: functional; details: route subcutaneous
Plasmodium berghei [39] = experiment: Antimalarial activity against trophozoite-induced Plasmodium berghei infected in mouse assessed as daily dose required to suppression of 90% parasite infection administered with diet for 6 days; format: functional
Gallus gallus [40] = experiment: Toxicity in trophozoite-induced Plasmodium gallinaceum infected white leghorn chicken assessed as mortality at 320 mg/kg, sc administered 72 hrs after infection measured after 48 hrs; format: organism-based; parameters: dose 320 mg/kg, route subcutaneous; details: in vivo

With `Nc1nc(N)c2cc(Sc3ccc(F)cc3)ccc2n1` the Ratio (Plasmodium berghei [1]) was 210, the MST (Plasmodium gallinaceum [2]) was 9.2 days and the MST (Plasmodium berghei [3]) was 11.1 days. The Activity (Plasmodium gallinaceum [4]) was “Active”, the MIC (Staphylococcus aureus [5]) was less than 0.25 µg/mL and the Activity (Plasmodium gallinaceum [6]) was “Active”. For the same compound, the Activity (Plasmodium berghei [7]) was “Active”, the MIC (Shigella sonnei) was less than 0.25 µg/mL and the Activity (Plasmodium berghei [8]) was “Active”. For the same compound, the Activity (Gallus gallus [9]) was “Toxic”, the Activity (Plasmodium gallinaceum [10]) was “Active” and the MST (Plasmodium gallinaceum [11]) was 13 days. The Activity (Plasmodium gallinaceum [12]) was “Active”, the MIC (Pseudomonas aeruginosa) was greater than 25 µg/mL and the Activity (Plasmodium gallinaceum [13]) was “Active”. For the same compound, the Activity (Plasmodium gallinaceum [14]) was “Active”, the MST (Plasmodium berghei [15]) was 7.1 days and the MST (Plasmodium gallinaceum [16]) was 5.8 days. For the same compound, the MIC (Staphylococcus aureus [17]) was less than 0.25 µg/mL, the MIC (Enterococcus faecalis) was less than 0.25 µg/mL and the MST (Plasmodium gallinaceum [18]) was 0 days. For the same compound, the MIC (Escherichia coli) was less than 0.25 µg/mL, the Activity (Gallus gallus [19]) was “Toxic” and the Activity (Plasmodium gallinaceum [20]) was “Active”. The MST (Plasmodium gallinaceum [21]) was 6.5 days, the Activity (Plasmodium gallinaceum [22]) was “Active” and the MST (Plasmodium gallinaceum [23]) was 15.5 days. The MST (Plasmodium gallinaceum [24]) was 0.5 days, the Activity (Plasmodium berghei [25]) was “Active” and the MST (Plasmodium berghei [26]) was 13.5 days. For the same compound, the MST (Plasmodium gallinaceum [27]) was 0 days, the Activity (Plasmodium berghei [28]) was “Active” and the Activity (Plasmodium berghei [29]) was “Active”. For the same compound, the MST (Plasmodium gallinaceum [30]) was 7.8 days, the MST (Plasmodium gallinaceum [31]) was 19.3 days and the MST (Plasmodium gallinaceum [32]) was 3.2 days. For the same compound, the MST (Plasmodium gallinaceum [33]) was 0.5 days, the MST (Plasmodium gallinaceum [34]) was 7.2 days and the MST (Plasmodium berghei [35]) was 5.3 days. For the same compound, the MST (Plasmodium berghei [36]) was 6.1 days, the Activity (Plasmodium berghei [37]) was “Active” and the MST (Plasmodium gallinaceum [38]) was 0.5 days. For the same compound, the SD90 (Plasmodium berghei [39]) was 0.36 mg/kg/day.
For `CN(Cc1ccc(Cl)c(Cl)c1)c1ccc2nc(N)nc(N)c2c1`, the MST (Plasmodium gallinaceum [2]) was 15.6 days, the MST (Plasmodium berghei [3]) was 7.5 days and the MST (Plasmodium gallinaceum [11]) was 20.6 days. It also gave an MST (Plasmodium berghei [15]) of 2.9 days, an MST (Plasmodium gallinaceum [16]) of 6.8 days and an MST (Plasmodium gallinaceum [23]) of 21 days. The Activity (Gallus gallus [40]) was “Toxic”, the MST (Plasmodium berghei [26]) was 14.9 days and the MST (Plasmodium gallinaceum [27]) was 1.4 days. The MST (Plasmodium gallinaceum [30]) was 10.6 days, the MST (Plasmodium gallinaceum [32]) was 6 days and the MST (Plasmodium gallinaceum [34]) was 7.4 days. The MST (Plasmodium berghei [35]) was 0.3 days and the MST (Plasmodium berghei [36]) was 1.5 days.
